This note sets out measurements from paper PMC9284842, “Allosteric activation of the metabolic enzyme GPD1 inhibits bladder cancer growth via the lysoPC-PAFR-TRPV2 axis” (Journal of Hematology & Oncology, 2022).

What is called Kd is a measure of binding affinity in units of concentration.

The target of experiment [1] is T1, GPD1 (Homo sapiens, UniProt P21695).
T1 construct: purchased recombinant protein (Proteintech Ag4471); Red-NHS dye labelled for MST; source of enzyme in activity assay not restated
T1 sequence (P21695 1-349): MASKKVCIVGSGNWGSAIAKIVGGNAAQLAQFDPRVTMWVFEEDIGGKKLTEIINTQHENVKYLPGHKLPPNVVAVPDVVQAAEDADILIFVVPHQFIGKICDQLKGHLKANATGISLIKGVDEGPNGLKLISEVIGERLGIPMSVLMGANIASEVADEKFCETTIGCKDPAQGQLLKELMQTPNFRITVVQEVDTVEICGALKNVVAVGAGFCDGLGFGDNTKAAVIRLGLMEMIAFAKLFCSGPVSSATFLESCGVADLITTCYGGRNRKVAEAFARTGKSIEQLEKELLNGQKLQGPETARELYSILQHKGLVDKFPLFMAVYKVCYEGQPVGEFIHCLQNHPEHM
The experiment is described as follows: NADH absorbance at […] nm, initial rate of DHAP reduction. As to conditions: 200 uM NADH, 8 mM DHAP, 1 uM GPD1, 20 mM TEA, 0.1 mg/mL BSA, I = 0.12 (NaCl); activator, proposed allosteric. The format is biochemical.

The target in experiment [2] is T1, GPD1. Put plainly: microscale thermophoresis (Monolith NT.[…], Hill fit). In kind it is binding.

As for `COc1cc(O)c2c(c1)oc(=O)c1c3cc(O)c(O)cc3oc21` [wedelolactone], on GPD1 [1], the activation result is given as “wedelolactone (WE) from Bioactive Compound Library Plus in MedChemExpress LLC had substantial activity”. This compound also displayed a Kd at GPD1 [2] of 505 nM.
